The IC50 is the midpoint of a concentration-inhibition curve.

Like-named read-outs stand apart in the source and are kept apart here.

In series [1] the test system is 3D7 strain of P. falciparum. The experiment in a line: High throughput quantitative parasite growth assay, luciferase expressing parasites. The series is classed as cell-based, Plasmodium falciparum. Particulars: luciferase readout, approximately 60 hours growth. As to the method: Numerous compounds were initially screened using a high throughput quantitative parasite growth assay that makes use of a strain of parasites expressing a cytoplasmic firefly luciferase (obtained from Dr. Kirk Deitsch, Cornell Medical College). These parasites were transfected with a vector containing the firefly luciferase gene using the malarial HRPII promoter. To grow parasites, culture dishes ranging from 96 well plates to 30 ml dishes were used. […] Parasites were cultured in human RBCs under an atmosphere of 5% O2/7% CO2/88% N2 in RPMI 1640 medium supplemented with 25 mM Hepes, 30 mg/L hypoxanthine, 0.225% (w/v) NaHCO3 and 0.5% (w/v) Albumax II (Life Technologies, Grand Island, N.Y.).
A standard luminescent readout was used to measure the growth of parasites. Parasites were grown under normal conditions, lysed in the presence of the luminescence reagents (Bright Glo, Promega) and then measured. To initially test for growth, luciferase expressing parasites were synchronized using serial sorbitol treatments and then parasitemia, the percentage of RBCS infected with parasites, was adjusted using uninfected RBCs. 100 μl of total media was used in a 96 well format. Parasitized RBCs were incubated in 96 well plates at 37° C. and gassed with 5% CO2, 5% O2, 90% N2. Parasites were allowed to grow for approximately 60 hours, until they successfully divided, ruptured and reinvaded new RBCs. At 10-15 hours post invasion, the cells were lysed, and luciferase levels were measured using an Analyst HT luminometer (Molecular Devices).

A further series deals with food vacuole. The experiment in a line: Food vacuole integrity, parasites expressing plasmepsin II-YFP, fluorescence microscopy. It counts as cell-based, Plasmodium falciparum. Particulars: plasmepsin II-YFP marker.
Another series relates to P. falciparum 3D7. The experiment in a line: Cultures of P. falciparum 3D7, flow cytometry quantitation of parasitemia. It counts as cell-based. Particulars: Plasmodium falciparum. The text has this:
(§1) Flow cytometry was used for quantitation of parasitemia using SYOX Green on an LSRII.
For orientation: In flow cytometry, cells or beads pass a laser one at a time.

For series [2], the system named is uninfected red blood cells.
The test system of another series is P. falciparum DD2. The experiment in a line: microbe, parasite or virus in culture. Particulars: for IC50: Plasmodium falciparum, DD2, read-out: IC50 (DD2). The series is classed as cell-based, Plasmodium falciparum.
Source text: as §1

A further series relates to P. falciparum. The experiment in a line: Anti-parasitic activity in vitro, human red blood cell assay. The series is classed as cell-based, Plasmodium falciparum. On the procedure: Anti-parasitic activities were measured in vitro using a human red blood cell assay. A single P. falciparum organism typically infects an erythrocyte and produces 24 progeny within 48 hours following infection. The progeny are released and rapidly infect neighboring red blood cells. […] Observations were also made during the 48 hour incubation period to assess the susceptibility of the parasite during lifecycle stages inside and outside the host erythrocyte. […] One goal of targeting parasite membranes, rather than proteins or metabolic pathways, represents a highly innovative and novel strategy for treating parasitic diseases and distinguishes this approach from most others in this field.

Setting [3] is: Plasmodium falciparum, 3D7, 60 h.

In turn, `C[C@H]1[C@H](OC(=O)CCC(=O)O)O[C@@H]2O[C@@]3(C)CC[C@H]4[C@H](C)CC[C@@H]1[C@@]24OO3` [Artesunate, artesunate, reference compound] had an IC50 in series [1] (setting [3]) of 9 nM.

Compound `NCCc1cccc(-c2ccc3sc4ccc(-c5cccc(CCN)c5)cc4c3c2)c1` [Compound 106] yielded a cytotoxicity in the series on human HepG2 cells of 40 to 50 µM. In the series on food vacuole, the “disruption of food vacuoles” value is reported as “disrupted food vacuoles”. For the same compound, the IC50 in the series on P. falciparum 3D7 (3D7 strain, read-out: IC50 (3D7)) worked out at 150 nM; in series [1] (setting [3]) it was 1150 nM; in the series on P. falciparum DD2, 100 nM. In addition, in series [2], the hemolytic result is “Neither compound, however, was hemolytic”. Also, the “effectiveness in strain DD2” value in the series on P. falciparum DD2 (DD2 strain) is listed as “effective”.

In turn, `c1cc(-c2ccc3sc4ccc(-c5ccnc(N6CCNCC6)c5)cc4c3c2)cc(N2CCNCC2)n1` [Compound 110] returned an IC50 in series [1] (setting [3]) of 584 nM.

Regarding `NCCCc1cccc(-c2ccc3sc4ccc(-c5cccc(CCCN)c5)cc4c3c2)c1` [Compound 116], the IC50 worked out at 318 nM in series [1] (setting [3]) and 50 nM with P. falciparum (Plasmodium falciparum, Erythrocyte, minimum concentration resulting in 50% killing, 48 hour incubation). For the same compound, the “IC50 (μM)” value in the series with P. falciparum (minimum concentration resulting in 50% killing, 48 hour incubation) is on record as “sub-μM”. Besides, the “IC100” value in the series on P. falciparum (minimum concentration resulting in 100% killing, 48 hour incubation) was determined as 0.850 µM. Also, in the series with P. falciparum (single concentration 10 μM), the “% Kill @ 10 μM” value was determined as 100%.

In series [1] (setting [3]), `c1cc(N2CCNCC2)ncc1-c1ccc2sc3ccc(-c4ccc(N5CCNCC5)nc4)cc3c2c1` [Compound 117] had an IC50 of 301 nM.

Compound `NCc1cccc(-c2ccc3[nH]c4ccc(-c5cccc(CN)c5)cc4c3c2)c1` [Compound 118] registered an IC50 in series [1] (setting [3]) of 364 nM.

Compound `NCCCc1cccc(-c2ccc3[nH]c4ccc(-c5cccc(CCCN)c5)cc4c3c2)c1` [Compound 119] showed an IC50 in series [1] (setting [3]) of 1860 nM.

As for `NCCCc1cccc(-c2ccc3oc4ccc(-c5cccc(CCCN)c5)cc4c3c2)c1` [Compound 120], 604 nM corresponded to half-maximal inhibition in series [1] (setting [3]) (IC50).

In turn, `N=C(N)NCCCCC(=O)Nc1cc(Br)cc(NC(=O)c2cc(C(=O)Nc3cc(Br)cc(NC(=O)CCCCNC(=N)N)c3SCCNC=O)ncn2)c1SCCNC=O` [Compound 125] had an IC50 in series [1] (setting [3]) of 286 nM.

As for `NCCCc1ccc(-c2ccc3sc4ccc(-c5ccc(CCCN)cc5)cc4c3c2)cc1` [Compound 130], it took 2560 nM to reach half-maximal inhibition in series [1] (IC50).

Compound `NCc1cccc(-c2ccc3sc4ccc(-c5cccc(CN)c5)cc4c3c2)c1` [Compound 131] yielded an IC50 in series [1] of 235 nM.

Turning to `c1cc(N2CCNCC2)ccc1-c1ccc2sc3ccc(-c4ccc(N5CCNCC5)cc4)cc3c2c1` [Compound 132], in series [1] (setting [3]), 236 nM corresponded to half-maximal inhibition (IC50).

`NCCCc1cccc(-c2ccc3c(c2)-c2cc(-c4cccc(CCCN)c4)ccc2S3(=O)=O)c1` [Compound 133] came in with an IC50 in series [1] (setting [3]) of 2030 nM.

`NCCc1cccc(-c2ccc3c(c2)c2cc(-c4cccc(CCN)c4)ccc2[s+]3[O-])c1` [Compound 134] registered a half-inhibitory concentration (IC50) in series [1] (setting [3]) of 2440 nM.

In turn, `COc1ccc(CCN)cc1-c1ccc2sc3ccc(-c4cc(CCN)ccc4OC)cc3c2c1` [Compound 135] came in with an IC50 in series [1] (setting [3]) of 108 nM.

In the case of `NCCN1CC=C(c2ccc3sc4ccc(C5=CCN(CCN)CC5)cc4c3c2)CC1` [Compound 136], the IC50 in series [1] (setting [3]) was 958 nM.

`CCn1c2ccc(-c3cccc(CCCN)c3)cc2c2cc(-c3cccc(CCCN)c3)ccc21` [Compound 137] showed an IC50 in series [1] (setting [3]) of 604 nM.

`C1=C(c2ccc3sc4ccc(C5=CCNCC5)cc4c3c2)CCNC1` [Compound 138] showed an IC50 in series [1] (setting [3]) of 213 nM.

Compound `N=C(N)NCCCc1cccc(-c2ccc3sc4ccc(-c5cccc(CCCNC(=N)N)c5)cc4c3c2)c1` [Compound 139] came in with an IC50 in series [1] (setting [3]) of 1170 nM.

In turn, `NCCNCc1cncc(-c2ccc3sc4ccc(-c5cncc(CNCCN)c5)cc4c3c2)c1` [Compound 140] returned an IC50 in series [1] (setting [3]) of 1670 nM.

With `NCCCc1cccc(-c2ccc3c(c2)-c2cc(-c4cccc(CCCN)c4)ccc2S3(=O)=O)c1` [Compound 141], the IC50 in series [1] was found to be 1340 nM.

With `CCN(CC)CCCC(C)Nc1ccnc2cc(Cl)ccc12` (stereo not shown) [chloroquine, reference compound], the 50% inhibitory concentration (IC50) stood at 20 nM in the series with P. falciparum 3D7 (3D7, read-out: IC50 (3D7)) and 80 nM in the series with P. falciparum DD2. In the series with P. falciparum DD2 (DD2 vs 3D7), the “resistance of DD2 strain relative to 3D7 strain” value came to 4 times.

Values taken from patent US8796275B2, “Anti-malarial compounds” (The Trustees of the University of Pennsylvania, priority 2008, dated 2014).
